BindingDB's records for doi:10.1021/jm00128a027 (Rorer Central Research, 1989)

Biological target: Polyunsaturated fatty acid 5-lipoxygenase (Cavia porcellus)
Assay: In vitro inhibition of polymorphonuclear leukocyte derived guinea pig 5-lipoxygenase

| IC50 | SMILES |
| --- | --- |
| 130 nM | O=C(CCCc1ccccc1)N(O)CCc1ccccc1 |
| 50 nM | O=C(c1ccc(OCc2ccccc2)cc1)N(O)CCc1ccccc1 |
